Measurements from PubChem BioAssay AID248 (DTP/NCI, 2004).
Inconclusive results and toxic doses are left out. Cut-off read from the data, not from the text of the source: active = T/C of 150% or more; inactive = T/C below 125%.

Test system: L1210 leukemia ip in BDF1 mice, survival T/C
Test: NCI In Vivo Anticancer Drug Screen. Data for tumor model L1210 Leukemia (intraperitoneal) in B6D2F1 (BDF1) mice
Settings: endpoint: mean survival time, higher = longer survival
Procedure, shortened: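 Ratio derived from survival: compound-dosed mice over vehicle-dosed mice, all bearing a transplantable tumor.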

[1] = dose: 200.0 mg/kg/injection, schedule: Q04DX003 (ip), vehicle: saline with Tween-80
[2] = dose: 100.0 mg/kg/injection, schedule: Q04DX003 (ip), vehicle: Klucel (hydroxypropylcellulose) (HPC)
[3] = dose: 200.0 mg/kg/injection, schedule: Q04DX003 (ip), vehicle: Klucel (hydroxypropylcellulose) (HPC)
[4] = dose: 400.0 mg/kg/injection, schedule: Q04DX003 (ip), vehicle: Klucel (hydroxypropylcellulose) (HPC)
[5] = dose: 100.0 mg/kg/injection, schedule: Q01DX009 (ip), vehicle: Klucel (hydroxypropylcellulose) (HPC)
[6] = dose: 100.0 mg/kg/injection, schedule: Q04DX003 (ip), vehicle: saline with Tween-80
[7] = dose: 400.0 mg/kg/injection, schedule: Q04DX003 (ip), vehicle: saline with Tween-80

Measured: T/C

CC(Cl)C(=O)OC(C)(C)Cl (centres undefined)
inactive: dose: 75.0 mg/kg/injection, schedule: Q01DX001 (ip), vehicle: carboxymethylcellulose (CMC) 104 % of control | dose: 150.0 mg/kg/injection, schedule: Q01DX001 (ip), vehicle: carboxymethylcellulose (CMC) 107 % of control

O=C1C(=O)C(c2ccccc2)(c2ccccc2)c2cc(-c3ccccc3)c(-c3ccccc3)cc21
inactive: [1] 93 % of control

CN(C)/N=N/c1nc[nH]c1C(N)=O.[Cl][Cu][Cl]
inactive: dose: 9.5 mg/kg/injection, schedule: Q01DX001 (ip), vehicle: saline 103 % of control | dose: 19.0 mg/kg/injection, schedule: Q01DX001 (ip), vehicle: saline 95 % of control | dose: 38.0 mg/kg/injection, schedule: Q01DX001 (ip), vehicle: saline 101 % of control

CCCC[n+]1cccc(C#N)c1
inactive: dose: 18.75 mg/kg/injection, schedule: Q01DX009 (ip), vehicle: saline 92 % of control | dose: 37.5 mg/kg/injection, schedule: Q01DX009 (ip), vehicle: saline 101 % of control | dose: 37.5 mg/kg/injection, schedule: Q04DX003 (ip), vehicle: saline 93 % of control | dose: 75.0 mg/kg/injection, schedule: Q01DX001 (ip), vehicle: saline 98 % of control | dose: 75.0 mg/kg/injection, schedule: Q01DX009 (ip), vehicle: saline 90 % of control | dose: 75.0 mg/kg/injection, schedule: Q04DX003 (ip), vehicle: saline 93 % of control | dose: 150.0 mg/kg/injection, schedule: Q01DX001 (ip), vehicle: saline 95 % of control | dose: 150.0 mg/kg/injection, schedule: Q04DX003 (ip), vehicle: saline 91 % of control

O=C(c1ccccc1)c1cn(C2CCCCC2)c(-c2ccccc2)c1NC1CCCCC1
inactive: dose: 100.0 mg/kg/injection, schedule: Q01DX009 (ip), vehicle: saline with Tween-80 93 % of control | dose: 200.0 mg/kg/injection, schedule: Q01DX009 (ip), vehicle: saline with Tween-80 93 % of control | dose: 400.0 mg/kg/injection, schedule: Q01DX009 (ip), vehicle: saline with Tween-80 102 % of control

CCCCCCCCCCCCCCCCOc1ccc(Cl)cc1
inactive: dose: 100.0 mg/kg/injection, schedule: Q01DX001 (ip), vehicle: Klucel (hydroxypropylcellulose) (HPC) 95 % of control | [2] 97 % of control | [3] 87 % of control | dose: 400.0 mg/kg/injection, schedule: Q01DX001 (ip), vehicle: Klucel (hydroxypropylcellulose) (HPC) 92 % of control | [4] 93 % of control

CC(C)CNC(=O)CCc1ccc(N(CCCl)CCCl)cc1
inactive: dose: 50.0 mg/kg/injection, schedule: Q01DX009 (ip), vehicle: Klucel (hydroxypropylcellulose) (HPC) 109 % of control | [5] 117 % of control | [2] 120 % of control | [3] 102 % of control | [4] 112 % of control

CC(=C(C#N)C#N)c1csc2ccccc12
inactive: dose: 100.0 mg/kg/injection, schedule: Q01DX001 (ip), vehicle: carboxymethylcellulose (CMC) 97 % of control | dose: 200.0 mg/kg/injection, schedule: Q01DX001 (ip), vehicle: carboxymethylcellulose (CMC) 87 % of control | dose: 400.0 mg/kg/injection, schedule: Q01DX001 (ip), vehicle: carboxymethylcellulose (CMC) 92 % of control

CCOC(=O)CC(C)(C)C1CC1
inactive: dose: 50.0 mg/kg/injection, schedule: Q01DX001 (ip), vehicle: saline 91 % of control | dose: 100.0 mg/kg/injection, schedule: Q01DX001 (ip), vehicle: saline 96 % of control | dose: 200.0 mg/kg/injection, schedule: Q01DX001 (ip), vehicle: saline 96 % of control | dose: 400.0 mg/kg/injection, schedule: Q01DX001 (ip), vehicle: saline 94 % of control

CN(CCc1cn(C2OC(CO)C(O)C(O)C2O)cn1)C(=O)/C=C/c1ccccc1 (centres undefined)
inactive: dose: 100.0 mg/kg/injection, schedule: Q01DX005 (ip), vehicle: saline 112 % of control

CC(C)OC(=O)C(NC=O)C(C)(C)S (centres undefined)
inactive: [6] 93 % of control | [1] 102 % of control | [7] 97 % of control

CS/C(N)=N\C(=O)N(C)C
inactive: [6] 97 % of control | [1] 98 % of control | [7] 101 % of control

Cc1cc(OCCOC(=O)Nc2ccc(F)cc2)ccc1Cl
inactive: [5] 106 % of control | dose: 200.0 mg/kg/injection, schedule: Q01DX009 (ip), vehicle: Klucel (hydroxypropylcellulose) (HPC) 101 % of control | dose: 400.0 mg/kg/injection, schedule: Q01DX009 (ip), vehicle: Klucel (hydroxypropylcellulose) (HPC) 101 % of control
